Results reported in ChEMBL document CHEMBL3885861, “Open TG-GATES”.

Species on record: Rattus norvegicus
Assay: Open TG-GATES - Regimen: Daily Repeat
Type: toxicity, organism-based, Sprague-Dawley
Design: regimen Daily Repeat, gender Male, age 6 weeks
Conditions: in vivo, po, route gavage; for APTT / Bas / Eos / Fbg / Hb / Ht / Lym / MCH / MCHC / MCV / Mono / Neu / PT / Plat / RBC / Ret / WBC: tissue Blood; for KIDNEY_L / KIDNEY_R / KIDNEY_TOTAL: tissue Kidney; for LIVER: tissue Liver; for A/G / ALP / ALT / AST / BUN / CRE / Ca / Cl / DBIL / GLC / IP / K / LDH / Na / PL / RALB / TBIL / TC / TG / TP / gamma-GTP: tissue Plasma
[1] = 0 mg/kg, 72 h, dose level Control, time 3 day
[2] = 0 mg/kg, […], dose level Control, time 7 day
[3] = 0 mg/kg, […], dose level Control, time 14 day
[4] = 0 mg/kg, […], dose level Control, time 28 day
[5] = 60 mg/kg, 72 h, dose level Low, time 3 day
[6] = 60 mg/kg, […], dose level Low, time 7 day
[7] = 60 mg/kg, […], dose level Low, time 14 day
[8] = 60 mg/kg, […], dose level Low, time 28 day

## C[C@](N)(Cc1ccc(O)c(O)c1)C(=O)O [METHYLDOPA]
[1]
  TERMINAL_BW: 207.1 g
  APTT: 15.9 s
  Bas: 0%
  Eos: 1.2%
  Fbg: 258.8 mg/dL
  Hb: 13.1 g/dL
  Ht: 38.4%
  Lym: 72.4%
  MCH: 21.5 pg
  MCHC: 34.1%
  MCV: 63.1 fL
  Mono: 3.4%
  Neu: 22.6%
  PT: 12.6 s
  Plat: 117.2 x10_4/uL
  RBC: 609 x10_4/ul
  Ret: 7.9%
  WBC: 72.1 x10_2/uL
  KIDNEY_L: 0.9 g
  KIDNEY_R: 0.9 g
  KIDNEY_TOTAL: 1.8 g
  LIVER: 9.3 g
  A/G: 0.8
  ALP: 1855.2 IU/L
  ALT: 59.4 IU/L
  AST: 80.2 IU/L
  BUN: 14 mg/dL
  CRE: 0.2 mg/dL
  Ca: 11.1 mg/dL
  Cl: 106.6 meq/L
  DBIL: 0.008 mg/dL
  GLC: 172.8 mg/dL
  IP: 7.5 mg/dL
  K: 3.9 meq/L
  LDH: 52.2 IU/L
  Na: 144.6 meq/L
  PL: 129.8 mg/dL
  RALB: 2.6 g/dL
  TBIL: 0.056 mg/dL
  TC: 76.8 mg/dL
  TG: 61.4 mg/dL
  TP: 5.6 g/dL
  gamma-GTP: 1.2 IU/L
[2]
  TERMINAL_BW: 238 g
  APTT: 17 s
  Bas: 0%
  Eos: 1.2%
  Fbg: 283.2 mg/dL
  Hb: 13.5 g/dL
  Ht: 39.4%
  Lym: 75%
  MCH: 21 pg
  MCHC: 34.2%
  MCV: 61.4 fL
  Mono: 3%
  Neu: 20.4%
  PT: 12 s
  Plat: 114.7 x10_4/uL
  RBC: 641.2 x10_4/ul
  Ret: 6%
  WBC: 75.9 x10_2/uL
  KIDNEY_L: 1 g
  KIDNEY_R: 1 g
  KIDNEY_TOTAL: 2 g
  LIVER: 10.9 g
  A/G: 0.9
  ALP: 1514 IU/L
  ALT: 46.8 IU/L
  AST: 72 IU/L
  BUN: 15.6 mg/dL
  CRE: 0.2 mg/dL
  Ca: 11 mg/dL
  Cl: 108.6 meq/L
  DBIL: 0.008 mg/dL
  GLC: 178.2 mg/dL
  IP: 6.9 mg/dL
  K: 4.2 meq/L
  LDH: 57.4 IU/L
  Na: 143.8 meq/L
  PL: 140.8 mg/dL
  RALB: 2.7 g/dL
  TBIL: 0.056 mg/dL
  TC: 75.8 mg/dL
  TG: 93.2 mg/dL
  TP: 5.8 g/dL
  gamma-GTP: 1.2 IU/L
[3]
  TERMINAL_BW: 288.8 g
  APTT: 16.9 s
  Bas: 0%
  Eos: 1%
  Fbg: 290.4 mg/dL
  Hb: 13.8 g/dL
  Ht: 39.4%
  Lym: 76%
  MCH: 21.2 pg
  MCHC: 35%
  MCV: 60.4 fL
  Mono: 3.2%
  Neu: 19.6%
  PT: 14.1 s
  Plat: 102.2 x10_4/uL
  RBC: 652 x10_4/ul
  Ret: 4.8%
  WBC: 69.9 x10_2/uL
  KIDNEY_L: 1.1 g
  KIDNEY_R: 1.1 g
  KIDNEY_TOTAL: 2.2 g
  LIVER: 12.7 g
  A/G: 0.8
  ALP: 1553 IU/L
  ALT: 45.2 IU/L
  AST: 65.4 IU/L
  BUN: 15.2 mg/dL
  CRE: 0.2 mg/dL
  Ca: 11.3 mg/dL
  Cl: 107 meq/L
  DBIL: 0.01 mg/dL
  GLC: 188.4 mg/dL
  IP: 6.4 mg/dL
  K: 4.5 meq/L
  LDH: 66.2 IU/L
  Na: 142 meq/L
  PL: 151.8 mg/dL
  RALB: 2.7 g/dL
  TBIL: 0.058 mg/dL
  TC: 76 mg/dL
  TG: 140.8 mg/dL
  TP: 6 g/dL
  gamma-GTP: 1 IU/L
[4]
  TERMINAL_BW: 375.3 g
  APTT: 19.6 s
  Bas: 0%
  Eos: 1.4%
  Fbg: 315.2 mg/dL
  Hb: 15 g/dL
  Ht: 43.3%
  Lym: 74.4%
  MCH: 19.5 pg
  MCHC: 34.8%
  MCV: 56 fL
  Mono: 2.6%
  Neu: 21.4%
  PT: 13.6 s
  Plat: 106 x10_4/uL
  RBC: 774 x10_4/ul
  Ret: 2.7%
  WBC: 74.6 x10_2/uL
  KIDNEY_L: 1.3 g
  KIDNEY_R: 1.2 g
  KIDNEY_TOTAL: 2.5 g
  LIVER: 15.4 g
  A/G: 0.8
  ALP: 1221.8 IU/L
  ALT: 41.2 IU/L
  AST: 59 IU/L
  BUN: 15.4 mg/dL
  CRE: 0.2 mg/dL
  Ca: 11.2 mg/dL
  Cl: 105.6 meq/L
  DBIL: 0.018 mg/dL
  GLC: 185.4 mg/dL
  IP: 6 mg/dL
  K: 3.9 meq/L
  LDH: 46.2 IU/L
  Na: 142.8 meq/L
  PL: 167.8 mg/dL
  RALB: 2.8 g/dL
  TBIL: 0.06 mg/dL
  TC: 89 mg/dL
  TG: 140.8 mg/dL
  TP: 6.3 g/dL
  gamma-GTP: 1 IU/L
[5]
  TERMINAL_BW: 205.8 g
  APTT: 17.3 s
  Bas: 0%
  Eos: 1%
  Fbg: 249 mg/dL
  Hb: 13.5 g/dL
  Ht: 39.1%
  Lym: 77.8%
  MCH: 21.6 pg
  MCHC: 34.4%
  MCV: 62.9 fL
  Mono: 2.8%
  Neu: 17.8%
  PT: 12.6 s
  Plat: 102.6 x10_4/uL
  RBC: 623.2 x10_4/ul
  Ret: 7.7%
  WBC: 71 x10_2/uL
  KIDNEY_L: 0.9 g
  KIDNEY_R: 0.9 g
  KIDNEY_TOTAL: 1.8 g
  LIVER: 8.9 g
  A/G: 0.9
  ALP: 1905.6 IU/L
  ALT: 60.6 IU/L
  AST: 79.2 IU/L
  BUN: 13.6 mg/dL
  CRE: 0.2 mg/dL
  Ca: 11.1 mg/dL
  Cl: 106.8 meq/L
  DBIL: 0.01 mg/dL
  GLC: 172.6 mg/dL
  IP: 7.4 mg/dL
  K: 4 meq/L
  LDH: 59.2 IU/L
  Na: 144 meq/L
  PL: 130 mg/dL
  RALB: 2.6 g/dL
  TBIL: 0.064 mg/dL
  TC: 76.8 mg/dL
  TG: 51.8 mg/dL
  TP: 5.4 g/dL
  gamma-GTP: 1 IU/L
[6]
  TERMINAL_BW: 237.3 g
  APTT: 16.2 s
  Bas: 0%
  Eos: 1%
  Fbg: 269.2 mg/dL
  Hb: 13.7 g/dL
  Ht: 39.9%
  Lym: 77.8%
  MCH: 21.8 pg
  MCHC: 34.3%
  MCV: 63.4 fL
  Mono: 3.2%
  Neu: 17.6%
  PT: 12.1 s
  Plat: 124.4 x10_4/uL
  RBC: 629 x10_4/ul
  Ret: 5.2%
  WBC: 68.8 x10_2/uL
  KIDNEY_L: 1 g
  KIDNEY_R: 1 g
  KIDNEY_TOTAL: 2 g
  LIVER: 10.4 g
  A/G: 0.9
  ALP: 1395.8 IU/L
  ALT: 43.4 IU/L
  AST: 69.4 IU/L
  BUN: 13.4 mg/dL
  CRE: 0.2 mg/dL
  Ca: 11 mg/dL
  Cl: 106.8 meq/L
  DBIL: 0.008 mg/dL
  GLC: 184 mg/dL
  IP: 7.2 mg/dL
  K: 4.6 meq/L
  LDH: 65.6 IU/L
  Na: 145 meq/L
  PL: 138.8 mg/dL
  RALB: 2.7 g/dL
  TBIL: 0.066 mg/dL
  TC: 87.4 mg/dL
  TG: 51.2 mg/dL
  TP: 5.9 g/dL
  gamma-GTP: 1 IU/L
[7]
  TERMINAL_BW: 281.9 g
  APTT: 16.9 s
  Bas: 0%
  Eos: 1%
  Fbg: 302.6 mg/dL
  Hb: 13.8 g/dL
  Ht: 39.6%
  Lym: 80.6%
  MCH: 20.5 pg
  MCHC: 34.9%
  MCV: 59 fL
  Mono: 2.6%
  Neu: 15.4%
  PT: 14 s
  Plat: 109.7 x10_4/uL
  RBC: 672.8 x10_4/ul
  Ret: 4.4%
  WBC: 64.6 x10_2/uL
  KIDNEY_L: 1.1 g
  KIDNEY_R: 1.1 g
  KIDNEY_TOTAL: 2.2 g
  LIVER: 12.2 g
  A/G: 0.9
  ALP: 1372.2 IU/L
  ALT: 40.6 IU/L
  AST: 61.6 IU/L
  BUN: 13.6 mg/dL
  CRE: 0.2 mg/dL
  Ca: 11.3 mg/dL
  Cl: 106.2 meq/L
  DBIL: 0.01 mg/dL
  GLC: 176.8 mg/dL
  IP: 6.6 mg/dL
  K: 4.3 meq/L
  LDH: 53 IU/L
  Na: 142 meq/L
  PL: 155.8 mg/dL
  RALB: 2.8 g/dL
  TBIL: 0.058 mg/dL
  TC: 89 mg/dL
  TG: 85.2 mg/dL
  TP: 5.9 g/dL
  gamma-GTP: 1 IU/L
[8]
  TERMINAL_BW: 389.2 g
  APTT: 18.8 s
  Bas: 0%
  Eos: 1.2%
  Fbg: 289 mg/dL
  Hb: 15 g/dL
  Ht: 42.9%
  Lym: 81.2%
  MCH: 19.7 pg
  MCHC: 35%
  MCV: 56.4 fL
  Mono: 2.2%
  Neu: 15%
  PT: 14 s
  Plat: 108.7 x10_4/uL
  RBC: 760.2 x10_4/ul
  Ret: 2.5%
  WBC: 77.4 x10_2/uL
  KIDNEY_L: 1.3 g
  KIDNEY_R: 1.3 g
  KIDNEY_TOTAL: 2.6 g
  LIVER: 15.2 g
  A/G: 0.8
  ALP: 1102.4 IU/L
  ALT: 49.8 IU/L
  AST: 65.6 IU/L
  BUN: 16 mg/dL
  CRE: 0.2 mg/dL
  Ca: 11.1 mg/dL
  Cl: 106.6 meq/L
  DBIL: 0.018 mg/dL
  GLC: 180.2 mg/dL
  IP: 5.8 mg/dL
  K: 4.2 meq/L
  LDH: 47.6 IU/L
  Na: 143.6 meq/L
  PL: 147 mg/dL
  RALB: 2.7 g/dL
  TBIL: 0.058 mg/dL
  TC: 77 mg/dL
  TG: 101.6 mg/dL
  TP: 6.1 g/dL
  gamma-GTP: 1 IU/L
